These results are taken from patent US4080381A, “Water soluble tertiary amine boranes” (Mine Safety Appliances Company, priority 1976, dated 1978).

Values after ≈ are worked out from the molar mass of the structure shown.

Data set [1] in a line: water solubility of the amine boranes. The class given is physicochemical. The procedure:
Two Hundred milliliters of distilled dimethylsulfide (DMS) and 122.5 g (523.5 mmol) of CH3 O(C2 H4 O)3 C2 H4 N(CH3)2 were added to a one liter three necked flask equipped with a magnetic stirring bar, a thermometer and a 250 ml pressure equalizing dropping funnel. 41.4 grams (523.5 mmol) of dimethylsulfide borane (DMSB) was added to the funnel. The DMSB was added dropwise over the next hour while maintaining the reaction vessel temperature between 7°-15° C with ice water cooling. After the reaction was complete, the DMS solvent was removed under vacuum.
(1) 62.0 g (530 mmol) of CH3 CH2 OC2 H4 N(CH3)2 and 41.7 g (530 mmol) of DMSB were reacted in the same manner as example 1.
33.7 g (229.2 mmol) of CH3 OC2 H4 OC2 H4 N(CH3)2 and 18.1 g (230 mmol) of DMSB were reacted in the same manner as example (1). The resulting liquid amine borane has an approximate water solubility of 200 g/l of solution.
113.2 g (1099 mmol) of CH3 OC2 H4 N(CH3)2 and 87.3 g (1099 mmol) DMSB were reacted in the same manner as example 1. […] Inert solvents, such as hydrocarbon or ether solvents, can be used partially or wholly in place of the DMS. Temperature, pressure and reaction proportions are not critical, although it is generally most convenient to use stoichimetric proportions at atmospheric pressure and room temperature or below.

Data set [2] can be described thus: electroless gold plating: reduction of gold salt solution on palladium chloride activated nickel plate. Particulars: mixed with KAuCl4 solution, pH 12.5. The procedure: The amine boranes of this invention are useful as reducing agents in aqueous solutions. For example, solutions of gold salts are reduced by the water soluble amine boranes to plate gold on a catalytically active surface contacted with the solution, as is more fully described in the above referenced co pending application. To illustrate, the pH of one hundred ml of a 3.0 g/l solution of KAuCl4 was raised to 12.5 by the addition of NaOH. In a separate beaker, the pH of 100 ml of a 2.00g/l solution of CH3 OCH2 CH2 N(CH3)2 :BH3 was also raised to 12.5 by the addtion of NaOH. […] A palladium chloride activated substrate of nickel plate was immersed in the stirred bath for one hour at room temperature.

For `[BH3-][N+](C)(C)CCOCCOCCOCCOC` [Example 1], the “water solubility (in words)” value in data set [1] (in water) is listed as “very soluble in water”.

In data set [1] (in water at 25° C), `[BH3-][N+](C)(C)CCOCC` [Example 2] showed a solubility in water of 17 mg/mL (≈ 130 mM).

In the case of `[BH3-][N+](C)(C)CCOCCOC` [Example 3], the approximate water solubility in data set [1] (in water) was ~200 g/l of solution.

With `[BH3-][N+](C)(C)CCOC` [Example 4], the “limiting solubility in water” value in data set [1] (in water) was 38 g/l of solution. In addition, in data set [2], the “appearance and stability of mixed plating solution” value is “clear and stable”.
